Results from ChEMBL document CHEMBL6109151, “Discovery of a Novel Dihydroisoquinolinone Derivative as a Potent CDK9 Inhibitor Capable of Overcoming L156F Mutant for the Treatment of Hematologic Malignancies” (J Med Chem, 2025).

Key:
Conditions in all cases: male, Sprague-Dawley, rat, iv, 1 mg/kg
in vivo [1] = experiment: in vivo
in vivo [2] = experiment: in vivo; remark: listed apart in the source
in vivo [3] = experiment: in vivo; remark: listed apart in the source
in vivo [4] = experiment: in vivo; remark: listed apart in the source

Compound: COc1cc(F)ccc1-c1cc(Nc2cc(CS(C)(=N)=O)ccn2)ncc1F (centres undefined) [ENITOCICLIB]
- Vd at 8 h (in vivo [1]): 1.11 L/kg
- clearance at 8 h (in vivo [2]): 14 mL/min/kg
- half-life at 8 h (in vivo [3]): 1.1 h
- AUC(0-t) at 8 h (in vivo [4]): 1190 ng·h/mL
